Test results taken from the supplement of paper PMC11451515.

Legend:
Details in all cases: 48 h
[1] = tested on: NOMO1; assay: AUC of viability dose-response curve (% viability x log10 dose units); higher = less sensitive
Method in brief: (§1)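 Area under the curve was integrated by trapezoidal rule from a log-logistic fit of normalised viability, with curves exceeding full viability scaled and quality-control failures removed. The fit had four parameters over log10 doses. Viability came from CellTiter-Glo One luminescence, normalised per plate to DMSO and cell-free wells, after leukemia cells adapted to each medium (500 or 1000 cells/well, 1536-well plates) were exposed to library compounds in DMSO for 48 h at 37°C. The 11 threefold doses ran from 47 μM to 0.79 nM.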

[2] = tested on: SEM cells; assay: as above
Method in brief: as §1

[3] = tested on: P12-Ichikawa; assay: as above
Method in brief: as §1

[4] = tested on: NOMO1; assay: cell viability relative to DMSO control; higher = less cytotoxic
Method in brief: (§2)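 Viability is a per-plate percentage relative to DMSO wells, with cell-free wells as background. CellTiter-Glo One luminescence was read after 48 h at 37°C on 1536-well plates (5 μl) of NOMO1 or SEM (500 cells/well) or P12-Ichikawa (1000 cells/well) leukemia cells. The cells had been adapted for at least four passages in each medium and pin-dosed with library compounds in DMSO from 47 μM to 0.79 nM in 11 threefold steps.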

[5] = tested on: SEM cells; assay: as above
Method in brief: as §2

[6] = tested on: P12-Ichikawa; assay: as above
Method in brief: as §2

COc1ncc(-c2ccc3c(Nc4cc(Oc5cc(F)cc(F)c5)cc(C(=O)O)c4)c([S+](=O)([O-])NC4CC4)cnc3c2)c(OC)n1
AUC of viability dose-response curve
Details	[1]	[2]	[3]
HPLM + 10% dialyzed FBS	442	387	433
RPMI 5 mM glucose + 10% FBS	440	457	405
RPMI 5 mM glucose + 10% dialyzed FBS	428	414	401

cell viability [%]
Details	[4]	[5]	[6]
HPLM + 10% dialyzed FBS, 0.000781 µM	112	90.4	94.1
HPLM + 10% dialyzed FBS, 0.00234 µM	111	78.2	95.9
HPLM + 10% dialyzed FBS, 0.00702 µM	91.1	77.5	92.3
HPLM + 10% dialyzed FBS, 0.0211 µM	106	86	91.9
HPLM + 10% dialyzed FBS, 0.0632 µM	113	85.2	91.5
HPLM + 10% dialyzed FBS, 0.19 µM	98	79.4	94.2
HPLM + 10% dialyzed FBS, 0.569 µM	95.7	88.1	93.3
HPLM + 10% dialyzed FBS, 1.71 µM	99.3	82.2	91.7
HPLM + 10% dialyzed FBS, 5.12 µM	86.5	75.5	87.9
HPLM + 10% dialyzed FBS, 15.4 µM	77.7	78	78.6
HPLM + 10% dialyzed FBS, 46.1 µM	87.2	71.5	82.3
RPMI 5 mM glucose + 10% FBS, 0.000781 µM	96.6	135	84
RPMI 5 mM glucose + 10% FBS, 0.00234 µM	102	107	87.8
RPMI 5 mM glucose + 10% FBS, 0.00702 µM	89.9	117	88.1
RPMI 5 mM glucose + 10% FBS, 0.0211 µM	95.6	133	93.1
RPMI 5 mM glucose + 10% FBS, 0.0632 µM	100	130	97.9
RPMI 5 mM glucose + 10% FBS, 0.19 µM	84.1	119	84.2
RPMI 5 mM glucose + 10% FBS, 0.569 µM	98.3	138	82.2
RPMI 5 mM glucose + 10% FBS, 1.71 µM	92.3	100	83.1
RPMI 5 mM glucose + 10% FBS, 5.12 µM	81.9	109	79.6
RPMI 5 mM glucose + 10% FBS, 15.4 µM	87.7	119	75.3
RPMI 5 mM glucose + 10% FBS, 46.1 µM	85.3	113	76.5
RPMI 5 mM glucose + 10% dialyzed FBS, 0.000781 µM	97.2	102	91.1
RPMI 5 mM glucose + 10% dialyzed FBS, 0.00234 µM	94.4	83.5	43
RPMI 5 mM glucose + 10% dialyzed FBS, 0.00702 µM	94	79.7	87.7
RPMI 5 mM glucose + 10% dialyzed FBS, 0.0211 µM	89	88.6	89.4
RPMI 5 mM glucose + 10% dialyzed FBS, 0.0632 µM	92	85	92.7
RPMI 5 mM glucose + 10% dialyzed FBS, 0.19 µM	102	89.7	91
RPMI 5 mM glucose + 10% dialyzed FBS, 0.569 µM	89.7	97.5	91.3
RPMI 5 mM glucose + 10% dialyzed FBS, 1.71 µM	86.9	75.4	88.4
RPMI 5 mM glucose + 10% dialyzed FBS, 5.12 µM	81.1	82.1	84.6
RPMI 5 mM glucose + 10% dialyzed FBS, 15.4 µM	79.7	104	82.8
RPMI 5 mM glucose + 10% dialyzed FBS, 46.1 µM	75.6	67.9	81.8

C[C@](N)(Cc1ccc(O)c(O)c1)C(=O)O
AUC of viability dose-response curve
Details	[1]	[2]	[3]
HPLM + 10% dialyzed FBS	391	395	427
RPMI 5 mM glucose + 10% FBS	387	417	416
RPMI 5 mM glucose + 10% dialyzed FBS	405	432	398

cell viability [%]
Details	[4]	[5]	[6]
HPLM + 10% dialyzed FBS, 0.000781 µM	84.9	83.9	95.1
HPLM + 10% dialyzed FBS, 0.00234 µM	84.3	85.7	90.6
HPLM + 10% dialyzed FBS, 0.00702 µM	96.8	94.4	91.4
HPLM + 10% dialyzed FBS, 0.0211 µM	74.9	86.3	96.8
HPLM + 10% dialyzed FBS, 0.0632 µM	89.4	102	102
HPLM + 10% dialyzed FBS, 0.19 µM	82	92.5	87.7
HPLM + 10% dialyzed FBS, 0.569 µM	76.7	84.1	77
HPLM + 10% dialyzed FBS, 1.71 µM	69.9	81.7	90.4
HPLM + 10% dialyzed FBS, 5.12 µM	92.9	83	87.8
HPLM + 10% dialyzed FBS, 15.4 µM	76.8	74.8	81.2
HPLM + 10% dialyzed FBS, 46.1 µM	72.6	6.26	84.8
RPMI 5 mM glucose + 10% FBS, 0.000781 µM	86.4	94.7	90.8
RPMI 5 mM glucose + 10% FBS, 0.00234 µM	80.1	106	93.3
RPMI 5 mM glucose + 10% FBS, 0.00702 µM	93.9	100	87.2
RPMI 5 mM glucose + 10% FBS, 0.0211 µM	82	111	89.3
RPMI 5 mM glucose + 10% FBS, 0.0632 µM	81.7	103	93.3
RPMI 5 mM glucose + 10% FBS, 0.19 µM	81	81.6	92.9
RPMI 5 mM glucose + 10% FBS, 0.569 µM	76.5	69.2	83.2
RPMI 5 mM glucose + 10% FBS, 1.71 µM	78.4	93.5	81.1
RPMI 5 mM glucose + 10% FBS, 5.12 µM	82.9	86.2	81
RPMI 5 mM glucose + 10% FBS, 15.4 µM	76.9	72.9	80.8
RPMI 5 mM glucose + 10% FBS, 46.1 µM	74.1	3.7	84.9
RPMI 5 mM glucose + 10% dialyzed FBS, 0.000781 µM	88.3	103	85.1
RPMI 5 mM glucose + 10% dialyzed FBS, 0.00234 µM	88.5	93.7	85.1
RPMI 5 mM glucose + 10% dialyzed FBS, 0.00702 µM	85	95.9	83.5
RPMI 5 mM glucose + 10% dialyzed FBS, 0.0211 µM	87.1	111	88.2
RPMI 5 mM glucose + 10% dialyzed FBS, 0.0632 µM	92.2	97.8	89.3
RPMI 5 mM glucose + 10% dialyzed FBS, 0.19 µM	85.7	91.1	82.1
RPMI 5 mM glucose + 10% dialyzed FBS, 0.569 µM	78.1	98.5	82.5
RPMI 5 mM glucose + 10% dialyzed FBS, 1.71 µM	87.2	96.1	81.8
RPMI 5 mM glucose + 10% dialyzed FBS, 5.12 µM	82.3	88.2	76.1
RPMI 5 mM glucose + 10% dialyzed FBS, 15.4 µM	79	77.4	81.8
RPMI 5 mM glucose + 10% dialyzed FBS, 46.1 µM	77.9	4.47	81.4

C[C@H]1O[C@H](C[C@H](O)[C@@H]1O)O[C@H]2[C@@H](O)C[C@@H](O[C@@H]2C)O[C@H]3[C@@H](O)C[C@@H](O[C@@H]3C)O[C@H]4CC[C@@]5(C)[C@H](CC[C@@H]6[C@@H]5C[C@@H](O)[C@]7(C)[C@H](CC[C@]67O)C/8=C/C(=O)OC8)C4
AUC of viability dose-response curve
Details	[1]	[2]	[3]
HPLM + 10% dialyzed FBS	226	200	208
RPMI 5 mM glucose + 10% FBS	280	250	242
RPMI 5 mM glucose + 10% dialyzed FBS	253	239	227

cell viability [%]
Details	[4]	[5]	[6]
HPLM + 10% dialyzed FBS, 0.000781 µM	120	117	116
HPLM + 10% dialyzed FBS, 0.00234 µM	119	106	128
HPLM + 10% dialyzed FBS, 0.00702 µM	136	122	123
HPLM + 10% dialyzed FBS, 0.0211 µM	138	123	111
HPLM + 10% dialyzed FBS, 0.0632 µM	97.2	30.4	33.5
HPLM + 10% dialyzed FBS, 0.19 µM	25.3	15.2	13.3
HPLM + 10% dialyzed FBS, 0.569 µM	12.2	11	12.7
HPLM + 10% dialyzed FBS, 1.71 µM	8.48	7.74	12.8
HPLM + 10% dialyzed FBS, 5.12 µM	8.1	7.71	14.3
HPLM + 10% dialyzed FBS, 15.4 µM	7.39	8.32	20.5
HPLM + 10% dialyzed FBS, 46.1 µM	5.28	6.4	17.2
RPMI 5 mM glucose + 10% FBS, 0.000781 µM	113	–	115
RPMI 5 mM glucose + 10% FBS, 0.00234 µM	112	–	123
RPMI 5 mM glucose + 10% FBS, 0.00702 µM	120	–	124
RPMI 5 mM glucose + 10% FBS, 0.0211 µM	107	–	110
RPMI 5 mM glucose + 10% FBS, 0.0632 µM	107	–	86.5
RPMI 5 mM glucose + 10% FBS, 0.19 µM	95.8	–	58.1
RPMI 5 mM glucose + 10% FBS, 0.569 µM	21.9	–	12.3
RPMI 5 mM glucose + 10% FBS, 1.71 µM	9.57	–	10.4
RPMI 5 mM glucose + 10% FBS, 5.12 µM	11	–	9.93
RPMI 5 mM glucose + 10% FBS, 15.4 µM	12.1	–	12.4
RPMI 5 mM glucose + 10% FBS, 46.1 µM	9.59	–	11.7
RPMI 5 mM glucose + 10% dialyzed FBS, 0.000781 µM	120	–	113
RPMI 5 mM glucose + 10% dialyzed FBS, 0.00234 µM	121	–	111
RPMI 5 mM glucose + 10% dialyzed FBS, 0.00702 µM	109	–	117
RPMI 5 mM glucose + 10% dialyzed FBS, 0.0211 µM	115	–	110
RPMI 5 mM glucose + 10% dialyzed FBS, 0.0632 µM	114	–	76.4
RPMI 5 mM glucose + 10% dialyzed FBS, 0.19 µM	57.2	–	32.5
RPMI 5 mM glucose + 10% dialyzed FBS, 0.569 µM	13.5	–	13.3
RPMI 5 mM glucose + 10% dialyzed FBS, 1.71 µM	7.93	–	10.7
RPMI 5 mM glucose + 10% dialyzed FBS, 5.12 µM	7.1	–	8.02
RPMI 5 mM glucose + 10% dialyzed FBS, 15.4 µM	7.81	–	8.92
RPMI 5 mM glucose + 10% dialyzed FBS, 46.1 µM	7.62	–	6.92
